Assay results from patent US20230364196A1, “METHODS FOR TREATING GRAFT-VERSUS-HOST DISEASE USING GLP-2 AGONISTS AND ANALOGUES THEREOF” (THE TRUSTEES OF COLUMBIA UNIVERSITY IN THE CITY OF NEW YORK, priority 2021, published 2023).
“Also recorded” adds a separate entry of the source.

How the values were obtained:
Format in all cases: in vivo, mouse
[1] = test system: BALB/C mice, lethal TBI and allogeneic transplantation; experiment: Cage conditions experiment in allogeneic transplant (co-housed, separate, separate plus antibiotics); conditions: caged separately plus antibiotics D-2 to D+14; listed as GLP-2
Description: BALB/C mice underwent lethal TBI and allogeneic transplantation were assigned to 3 cage conditions to perturb their microbial composition: 1) vehicle and GLP-2 treated animals housed together, 2) treatment groups housed separately or 3) treatment groups housed separately and provided with neomycin and polymyxin-b in their drinking water from D-2 to D+14 post-transplant.
We then assessed the role of microbial communities in the protective effect of GLP-2 by conducting an allogeneic transplant with 3 caging conditions; 1) vehicle and GLP-2 treated mice caged together, 2) caged separately, or 3) caged separately plus oral antibiotics.

[2] = test system: major MHC-mismatched GVHD model, BALB/c mice; experiment: GVHD prevention after allogeneic HSCT with lower T-cell dose (0.5×10^6 splenic T cells)
Description: (§1) To determine the effect of elsiglutide treatment on graft-versus-host disease in MHC-mismatched (allogeneic) murine hematopoietic stem-cell transplantation and identify the optimal dosing schedule, in this experiment BALB/c mice were lethally-irradiated and transplanted with bone marrow (5×10^6 cells) from B6 mice plus 2×10^6 splenic T-cells and treated with 800 nmol/kg/d elsiglutide at 4 different treatment schedules (syngeneic transplant and allogeneic transplant with vehicle were used as controls).
In a subsequent experiment, we used the same design as Example 3 but with T-cell depleted (TCD) bone marrow (BM) cells (5×10^6 cells) and a lower T-cell dose (0.5×10^6 splenic T cells) to allow examination of survival differences in a major MHC-mismatched GVHD model (aggressive GVHD model). As treatment effect was similar in this experiment for groups 3-4 and 5-6, these groups were combined into an “elsiglutide pre-transplant” group and an “elsiglutide post-transplant” group for presentation. In addition, animals originally designated to end treatment on D4 resumed treatment on D9 and continued until D30 or SAC. This time, the administration of elsiglutide beginning on D1 post-transplantation rescued 100% of mice from lethal GVHD along with improvement in GVHD scores and weight. […] Control mice (allogeneic transplant with vehicle control) had 100% mortality as expected and syngeneic control mice had 100% survival as expected (FIG. 10). This further supports the hypothesis that the timing of administration of the drug (post- vs. pre-radiation conditioning) is critical.

[3] = test system: BALB/C mice, syngeneic transplant; experiment: Innate immune cells of the lamina propria after syngeneic transplant; conditions: for recovery of mature (P4) lamina propria macrophages: D+7, vs vehicle
Description: To assess the impact of GLP-2 on macrophage maturation in the absence of inflammatory GVHD, BALB/C mice were transplanted with T-cell depleted bone marrow from BALB/C donors and given daily S.C. injections of GLP-2 as mentioned above. […] P1-P4 macrophages were gated as CD45+CD19^−CD3-Ly6G^− and CD11b^+ or CD11c^+. Subsets of the “monocyte-waterfall” were gated as: P1: CD64^−/low Ly6C^+MHC II^− CX3CR1^−/low; P2: CD64^low/+Ly6C^+ MHC II^+ CX3CR1^−/low; P3: CD64^+ Ly6C^−MHC II^+ CX3CR1^−/low; P4: CD64^+Ly6C^−MHC II^+ CX3CR1^+. N=4 per treatment group.
Daily subcutaneous injection of GLP-2 increases the relative abundance of lamina propria ILCs in a process that appears to target type-3 ILCs (ILC3s). ILC3s are important immunomodulators of the lamina propria and intestinal stem-cell (ISC) niche via their production of IL-22, playing a role in ISC maintenance. […] ILCs were gated as CD45^+ CD19^− CD3^− Ly6G^− CD11b^− CD11c^− CD127^+, with subsets being assigned based on Tbet (ILC1), GATA-3 (ILC2) and RORgt (ILC3) expression.

healthy BALB/c mice = experiment: Escalating elsiglutide doses in healthy mice (no irradiation or transplant)
Experimental: In this experiment elsiglutide at escalating doses (200-800 nmol/kg/d) was injected to healthy mice without irradiation or chemotherapy for 10 days.
In this experiment we also performed Ki67 stains to document the proliferation of crypt cells in response to elsiglutide (FIG. 7). In healthy mice treated with vehicle Ki67 immunoreactivity was predominantly confined to the crypts where the stem cells reside.

[4] = test system: graft-versus-host disease in lethally-irradiated BALB/c mice transplanted from B6 mice; experiment: GVHD prevention after major MHC-mismatched allogeneic HSCT (2×10^6 splenic T-cells); conditions: 800 nmol/kg/d
Description: as §1

[5] = test system: major MHC mismatched allogeneic transplant mice; experiment: Mechanistic study in major MHC-mismatched allogeneic transplant (flow cytometry/histology of organs, serum cytokines); conditions: for proportion of Th1 and CD8+ T-cells expressing T-bet (intraepithelial, small intestine): 800 nmol/kg daily subcutaneous; for engraftment of hematopoietic stem cells / donor cells in the spleen: post-transplant elsiglutide vs vehicle, D7
Description: BALB/C mice underwent lethal TBI. (850 cGy Cs137) and transplantation with 5×10^6 T-cell depleted bone marrow cells and 1×10^6 splenic T-cells from B6 donors (major MHC-mismatch model).
To further explore the mechanism behind the treatment effect observed in Example 4, we used the same experimental design as Example 4. […]

intestinal microbiota = experiment: Intestinal microbiota by 16S rRNA sequencing of stool after lethal TBI and syngeneic transplantation
Experimental: Mice undergoing lethal TBI were treated with daily S.C. injections with Elsiglutide (GLP-2) and their stool collected for 16s rRNA sequencing on D+0 (baseline), D+14 and D+28 post-transplant.
To assess potential mechanisms for the differences in macrophage and T-cell phenotype, we examined the impact of GLP-2 on the intestinal microbiota. A syngeneic BALB/cJ model (similar to Example 1) was used to explore the effects of GLP-2 independent of GVHD. Stool samples from D+0, D+14, and D+28 were subjected to 16S rRNA sequencing. Vehicle-treated mice had distinct […] clusters at all time-points, showing a transplant effect on the microbiota (FIG. 28A). […] These taxa have been associated with anti-inflammatory properties and A. muciniphila abundance is linked to epithelial mucin production, which is increased by GLP-2.

[6] = test system: BALB/c syngeneic transplant recipients after high-dose lethal radiation; experiment: Syngeneic transplant after high-dose lethal radiation, different elsiglutide treatment schedules; conditions: for apoptotic bodies within the crypts (TUNEL stain): D4 after radiation
Experimental: This experiment was carried out to determine the effect of daily elsiglutide administration (800 nmol/kg) on weight recovery and bowel weight in response to high dose radiotherapy using different treatment schedules. Syngeneic transplant was performed to rescue the animals from early death due to hematopoietic failure to be able to examine the mice at several time points. […] Treatment with elsiglutide increased small bowel mass after irradiation and syngeneic transplant. The longer the treatment the more pronounced the effect.
TUNEL stain was then performed to assess apoptosis of intestinal epithelial cells on D4 after radiation. We observed a small number of apoptotic bodies within the crypts of all mice at D4 post irradiation and transplantation (FIG. 4).

[7] = D+21 post-transplant, listed as Elsiglutide
[8] = post-transplant elsiglutide, allogeneic transplant

elsiglutide
effect of oral antibiotics (neomycin and polymyxin-b) on the survival benefit of treatment [1]: dampened the beneficial effect; also recorded: reduced the efficacy | GVHD scores and weight ([2]; elsiglutide beginning on D1 post-transplantation): improvement | mice rescued from lethal GVHD ([2]; elsiglutide beginning on D1 post-transplantation, through day 35): 100% | mice surviving long term ([2]; post-transplant elsiglutide group, after discontinuation of treatment (day 30)): 50% | GVHD scores and weight in surviving mice ([2]; pre-transplant elsiglutide): still had an effect | mice rescued from death ([2]; pre-transplant elsiglutide, through day 35): 40% | ILC3 [3]: significant increase | recovery of mature (P4) lamina propria macrophages [3]: improved recovery | recovery of mature (P4) lamina propria macrophages ([3]; listed as GLP-2): increased shift | recovery / relative abundance of lamina propria ILCs ([3]; D+14): improved | recovery / relative abundance of lamina propria ILCs ([3]; D+14, listed as GLP-2): increases | Ki67 staining, difference between doses (healthy BALB/c mice; 200-800 nmol/kg/d): no obvious difference | total body weight over baseline (healthy BALB/c mice; 200-800 nmol/kg/d for 10 days, unirradiated): enhanced; also recorded: dose-dependent weight increase | weight of small and large bowel (healthy BALB/c mice; 200-800 nmol/kg/d, by day 10): enhanced; also recorded: dose-dependent increase | Ki67 proliferation staining of crypt cells (healthy BALB/c mice; vs vehicle-treated healthy mice): extended further out of the crypts into the villi | small bowel weight and length ([4]; 4 treatment schedules, p<0.0001, not dependent on schedule): increase | GVHD outcome ([4]; 2×10^6 T-cell dose, all mice except 1 from −D3-D4 group, euthanized by D8): developed severe GvHD by D6 | proportion of Th1 and CD8+ T-cells expressing T-bet (intraepithelial, small intestine) [5]: lower proportion | proportion of Th1 and CD8+ T-cells expressing T-bet (intraepithelial, small intestine) ([5]; listed as Elsiglutide): reduced | interferon gamma in the serum ([5]; D+21 after transplant, vs vehicle): lower levels | co-stimulatory molecules and SIRPα on lamina propria macrophages ([5]; D+21 post-transplant): reduced expression of co-stimulatory molecules and increased SIRPα | lamina propria macrophages with tolerogenic/mature phenotype (higher CX3CR1, SIRP-alpha; lower CD80, CD86, CD206) ([5]; D+21 post-transplant): increase | Ly6C^high MHC-II^low immature macrophages [5, 7]: decrease; also recorded: significant reduction | lamina propria macrophages with tolerogenic/mature phenotype (higher CX3CR1, SIRP-alpha; lower CD80, CD86, CD206) [5, 7]: increased prevalence | recovery of innate lymphoid cell (ILC) subtypes in lamina propria ([5]; allogeneic setting, D+14 post-transplant): did not enhance recovery of any ILC subtype | T-cell activation ([5]; day 7 after transplant): reduced | engraftment of hematopoietic stem cells / donor cells in the spleen [5]: did not impair | engraftment of hematopoietic stem cells / donor cells in the spleen ([5]; listed as elsigltide): comparable engraftment | body weight loss [5, 8]: absence of weight loss | small bowel mass and length [5, 8]: increase | lung inflammation, macroscopic assessment (1×) ([5]; vs allogeneic transplant mice with vehicle): fewer areas of inflammation and healthier appearing lung tissue | CD44 expression on gut T-cells ([5]; vs vehicle): higher | expression of adhesion molecules on gut lamina propria T-cells (CD103 on CD4 T-cells) ([5]; vs vehicle): decreased; also recorded: lower | lung infiltrates and alveolar wall thickening (20×) ([5]; vs vehicle): decreased infiltration and less alveolar wall thickening | CD3+ T-cell infiltration in colon and small bowel (immunohistochemistry) ([5]; vs vehicle treated mice): decreased T-cell infiltration with more focal and less diffuse pattern of infiltration and fewer intraepithelial T-cells | T-EMRA cells in CD4 and CD8 T-cells, IEL and LPL ([5]; vs vehicle-treated mice): fewer | alveolar diameter and alveolar wall thickness ([5]; vs vehicle-treated mice): decreased inflammation and alveolar damage | inflammation in the liver portal triads ([5]; vs vehicle-treated mice, 20× magnification): decreased inflammation | abundance of Bacteroidales S24-7 family (intestinal microbiota; D+14 and D+28): significantly enriched | abundance of Akkermansia muciniphila (intestinal microbiota; D+14 and D+28, listed as GLP-2): significantly enriched; also recorded: increased | β-diversity of stool microbiota by D+28 (intestinal microbiota; continual treatment): shifts in β-diversity | β-diversity clusters of stool microbiota, D+0 vs D+14 (intestinal microbiota; daily S.C. injections, listed as GLP-2): near-complete cluster overlap; also recorded: overlap between D+0 and D+14 samples | weight recovery after high dose radiotherapy ([6]; 800 nmol/kg daily, several treatment schedules): without a clear effect | weight recovery after radiation ([6]; 800 nmol/kg daily, treatment start on D-3): slightly worse than other schedules | small bowel mass after irradiation and syngeneic transplant ([6]; 800 nmol/kg daily, longer treatment more pronounced): increased | apoptotic bodies within the crypts (TUNEL stain) ([6]; pre-transplant treated animals (D-7), vs vehicle): increased abundance of apoptotic bodies | apoptotic bodies within the crypts (TUNEL stain) ([6]; treatment D-7 to D-3 then resumed on D1): very few apoptotic bodies | apoptotic bodies within the crypts (TUNEL stain) ([6]; treatment beginning D1 post-transplant): almost no apoptotic bodies | villi length and crypt depth (histology, distal small bowel) ([6]; after radiation, longer courses most pronounced): enhanced
